Assay results as given in PubChem BioAssay AID1259408 (Genetic Toxicology Data Bank (GENE-TOX), 2018).
The source made the active and inactive calls. The rule behind the calls is not given here.

Test system: GENE-TOX genotoxicity assays, various organisms and cells
Test: GENE-TOX mutagenicity studies
Details: for call: Assay Type: In vivo carcinogenicity studies
Source text: GENE-TOX provides genetic toxicology (mutagenicity) test data from expert peer review of open scientific literature for more than 3,000 chemicals from the United States Environmental Protection Agency (EPA). GENE-TOX was established to select assay systems for evaluation, review data in the scientific literature, and recommend proper testing protocols and evaluation procedures for these systems.
GENE-TOX covers the years 1991 - 1998. It is no longer updated.
This is an archive assay for GENE-TOX mutagenicity studies.

[1] = Species/Cell Type: Nonhuman, Assay Type: Sister-chromatid exchange (SCE) in vitro, Assay Code: SC2+, Evaluation Type: Evaluation B (Post-1980)
[2] = Species/Cell Type: Drosophila melanogaster, Assay Type: Sex-linked recessive lethal gene mutation, Assay Code: SRLT, Evaluation Type: Evaluation A (Pre-1980)
[3] = Species/Cell Type: Escherichia coli polA (W3119 vs P3478), Assay Type: Rec-assay, DNA effects (bacterial DNA repair), Assay Code: RE1+, Evaluation Type: Evaluation A (Pre-1980)
[4] = Species/Cell Type: Drosophila melanogaster, Assay Type: Sex-linked recessive lethal gene mutation, Assay Code: SRL+, Evaluation Type: Evaluation A (Pre-1980)
[5] = Species/Cell Type: Saccharomyces cerevisiae, Assay Type: Mitotic recombination or gene conversion, Assay Code: YEC+, Evaluation Type: Evaluation A (Pre-1980)
[6] = Species/Cell Type: Human, Assay Type: Sister-chromatid exchange (SCE) in vitro, Assay Code: SC1T, Evaluation Type: Evaluation B (Post-1980)
[7] = Species/Cell Type: Salmonella typhimurium (one or more of the five standard strains: TA98, TA100, TA1535, TA1537, and TA1538), Assay Type: Histidine reverse gene mutation, Ames assay, Assay Code: SAL+, Evaluation Type: Evaluation A (Pre-1980)
[8] = Species/Cell Type: Chinese hamster lung (V79) cells, Assay Type: Forward gene mutation at the HPRT or ouabain locus, Assay Code: V79-, Evaluation Type: Evaluation A (Pre-1980)
[9] = Species/Cell Type: Salmonella typhimurium (one or more of the five standard strains: TA98, TA100, TA1535, TA1537, and TA1538), Assay Type: Histidine reverse gene mutation, Ames assay, Assay Code: SALT, Evaluation Type: Evaluation A (Pre-1980)
[10] = Species/Cell Type: Nonhuman, Assay Code: CCG+L, Evaluation Type: Evaluation A (Pre-1980)
[11] = Species/Cell Type: Salmonella typhimurium (one or more of the five standard strains: TA98, TA100, TA1535, TA1537, and TA1538), Assay Type: Histidine reverse gene mutation, Ames assay, Assay Code: SAL+*, Activation: With metabolic activation, Evaluation Type: Evaluation A (Pre-1980)
[12] = Species/Cell Type: Nonhuman, Assay Type: Sister-chromatid exchange (SCE) in vitro, Assay Code: SC2-, Evaluation Type: Evaluation A (Pre-1980)

C
mutagenic call [1]: active; positive

CN[C@@H]1[C@H](O[C@H]2[C@H](O[C@H]3[C@H](O)[C@@H](O)[C@H](N=C(N)N)[C@@H](O)[C@@H]3N=C(N)N)O[C@@H](C)[C@]2(O)C=O)O[C@@H](CO)[C@H](O)[C@H]1O
mutagenic call (Species/Cell Type: Bacillus subtilis (H17 vs M45T), Assay Type: Rec-assay, spot test, DNA effects (bacterial DNA repair), Assay Code: REXT, Evaluation Type: Evaluation A (Pre-1980)): no conclusion
mutagenic call [2]: no conclusion
mutagenic call (Species/Cell Type: Escherichia coli polA (W3119 vs P3478), Assay Type: Rec-assay, DNA effects (bacterial DNA repair), Assay Code: RE1-, Evaluation Type: Evaluation A (Pre-1980)): inactive; negative
mutagenic call (Species/Cell Type: Vicia faba, Assay Type: Chromosome aberrations, Assay Code: VIC+, Evaluation Type: Evaluation A (Pre-1980)): active; positive

C1CCNCC1
mutagenic call (Species/Cell Type: Salmonella typhimurium, Assay Type: Forward and reverse gene mutation, host-mediated assay, Assay Code: HMA-, Evaluation Type: Evaluation A (Pre-1980)): inactive; negative

ClCc1ccccn1
call (Species/Cell Type: Nonhuman, Assay Code: CCG-L, Evaluation Type: Evaluation A (Pre-1980)): inactive; negative

CCN(CC)CCCC(C)Nc1c2ccc(Cl)cc2nc2ccc(OC)cc12 (stereo not given)
mutagenic call [3]: active; positive
mutagenic call (Species/Cell Type: Human lymphocytes, Assay Type: Sister-chromatid exchange (SCE) in vitro, Assay Code: SCL+, Evaluation Type: Evaluation B (Post-1980)): active; positive
mutagenic call (Species/Cell Type: Human, Assay Type: Sister-chromatid exchange (SCE) in vitro, Assay Code: SC1+, Evaluation Type: Evaluation B (Post-1980)): active; positive
mutagenic call (Species/Cell Type: Mammalian polychromatic erythrocytes, Assay Type: Micronucleus test, chromosome aberrations, Assay Code: MNT+, Evaluation Type: Evaluation B (Post-1980)): active; positive
mutagenic call (Species/Cell Type: Mammalian polychromatic erythrocytes, Assay Type: Micronucleus test, chromosome aberrations, Assay Code: MNTT, Evaluation Type: Evaluation A (Pre-1980)): no conclusion
mutagenic call (Species/Cell Type: Mouse, Sex: Male, Assay Type: Sperm morphology, Assay Code: SPI-, Evaluation Type: Evaluation A (Pre-1980)): inactive; negative

CCCN(CCC)S(=O)(=O)c1ccc(C(=O)O)cc1
mutagenic call (Species/Cell Type: Saccharomyces cerevisiae, Assay Type: Mitotic recombination or gene conversion, Assay Code: YEC-*, Activation: With metabolic activation, Evaluation Type: Evaluation A (Pre-1980)): inactive; negative

CC(C)C(Br)Br
mutagenic call [3]: active; positive

CN(C)N=Nc1ccccc1
mutagenic call (Species/Cell Type: Drosophila melanogaster, Assay Type: Aneuploidy, partial sex chromosome loss, chromosome aberrations, Assay Code: DAP+M, Evaluation Type: Evaluation A (Pre-1980)): active; positive
mutagenic call [4]: active; positive
mutagenic call (Species/Cell Type: Drosophila melanogaster, Sex: Male, Assay Type: Heritable translocation test, chromosome aberrations, Assay Code: DHT+, Evaluation Type: Evaluation A (Pre-1980)): active; positive
mutagenic call (Species/Cell Type: Escherichia coli polA (W3110 vs P3478), Assay Type: Rec-assay, DNA effects (bacterial DNA repair), Assay Code: RE2+, Evaluation Type: Evaluation A (Pre-1980)): active; positive
mutagenic call [3]: active; positive
mutagenic call (Species/Cell Type: Mammalian polychromatic erythrocytes, Assay Type: Micronucleus test, chromosome aberrations, Assay Code: MNT+, Evaluation Type: Evaluation A (Pre-1980)): active; positive
mutagenic call (Species/Cell Type: Neurospora crassa, Assay Type: Forward gene mutation, Assay Code: NEF+, Evaluation Type: Evaluation A (Pre-1980)): active; positive
mutagenic call (Species/Cell Type: Nonhuman lymphocytes or leukocytes, Assay Type: Chromosome aberrations in vivo, Assay Code: CY%-, Evaluation Type: Evaluation A (Pre-1980)): inactive; negative
call (Species/Cell Type: Nonhuman, Assay Code: CCG+, Evaluation Type: Evaluation A (Pre-1980)): active; positive
mutagenic call (Species/Cell Type: Nonhuman, Assay Type: Sister-chromatid exchange (SCE) in vivo, Assay Code: SC3+D, Dose Response: With dose response, Evaluation Type: Evaluation A (Pre-1980)): active; positive
mutagenic call (Species/Cell Type: Saccharomyces cerevisiae, Assay Type: Forward and reverse gene mutation, mitotic recombination and gene conversion, host-mediated assay, Assay Code: HME+, Evaluation Type: Evaluation A (Pre-1980)): active; positive
mutagenic call [5]: active; positive
mutagenic call (Species/Cell Type: Saccharomyces cerevisiae, Assay Type: Mitotic recombination or gene conversion, Assay Code: YEH+, Evaluation Type: Evaluation A (Pre-1980)): active; positive

Cc1c(N(C)CS(=O)(=O)O)c(=O)n(-c2ccccc2)n1C
mutagenic call [6]: no conclusion

CN=C(NC#N)NCCSCc1nc[nH]c1C
mutagenic call (Species/Cell Type: Human lymphocytes, Assay Type: Sister-chromatid exchange (SCE) in vitro, Assay Code: SCLT, Evaluation Type: Evaluation B (Post-1980)): no conclusion
mutagenic call [6]: no conclusion
mutagenic call (Species/Cell Type: Human, Sex: Male, Assay Type: Sperm morphology, Assay Code: SPHT, Evaluation Type: Evaluation A (Pre-1980)): no conclusion

CC(=O)c1ccc([N+](=O)[O-])o1
mutagenic call [7]: active; positive

CN(N=O)C(=O)C(=O)N(C)N=O
mutagenic call (Species/Cell Type: Arabidopsis species, Assay Type: Gene mutation, Assay Code: ARM+, Evaluation Type: Evaluation A (Pre-1980)): active; positive
mutagenic call (Species/Cell Type: Saccharomyces cerevisiae, Assay Type: Reverse gene mutation, Assay Code: YER+, Evaluation Type: Evaluation A (Pre-1980)): active; positive

C[C@@]1(O)C=Cc2cc3c(ccc4ccccc43)c3c2[C@@]1(O)CC3
mutagenic call [8]: inactive; negative
call (Species/Cell Type: Nonhuman, Assay Code: CCGT, Evaluation Type: Evaluation A (Pre-1980)): no conclusion
mutagenic call [9]: no conclusion

Cc1cc2c(c3ccc4ccccc4c13)CCCC2C (stereo not given)
mutagenic call [9]: no conclusion

Oc1cc2ccc3cc4ccccc4c4ccc(c1)c2c34
mutagenic call [8]: inactive; negative
call [10]: active; positive
mutagenic call [11]: active; positive

ClCCN(CCCl)c1ccc2ccccc2c1
mutagenic call [4]: active; positive
call [10]: active; positive
mutagenic call [7]: active; positive
mutagenic call (Species/Cell Type: Syrian hamster embryo (SA7/SHE) cells, Assay Type: Cell transformation, viral enhanced, Assay Code: CT7+, Evaluation Type: Evaluation A (Pre-1980)): active; positive

CCN(CC)CCOc1ccc2c(c1)C(=O)c1cc(OCCN(CC)CC)ccc1-2
mutagenic call (Species/Cell Type: Mouse (C3H/10T1/2) cells, Assay Type: Cell transformation, Assay Code: CTH-, Evaluation Type: Evaluation A (Pre-1980)): inactive; negative
mutagenic call [12]: inactive; negative
mutagenic call (Species/Cell Type: Nonhuman, Assay Type: Sister-chromatid exchange (SCE) in vitro, Assay Code: SC2T, Evaluation Type: Evaluation B (Post-1980)): no conclusion
mutagenic call [7]: active; positive

Cc1c2ccccc2c(CO)c2c3c(ccc12)[C@@H](O)[C@H](O)C=C3
mutagenic call (Species/Cell Type: Chinese hamster lung (V79) cells, Assay Type: Forward gene mutation at the HPRT or ouabain locus, Assay Code: V79+, Evaluation Type: Evaluation A (Pre-1980)): active; positive
call [10]: active; positive

c1ccc2ncccc2c1
mutagenic call (Species/Cell Type: Nonhuman, Assay Type: Sister-chromatid exchange (SCE) in vitro, Assay Code: SC2+D, Dose Response: With dose response, Evaluation Type: Evaluation B (Post-1980)): active; positive
mutagenic call [12]: inactive; negative
mutagenic call [11]: active; positive

CC(C)N(C(=O)CCl)c1ccccc1
mutagenic call [5]: active; positive

COc1ccc2nc3cc(Cl)ccc3c(NCCCNCCO)c2n1
mutagenic call (Species/Cell Type: Chinese hamster ovary (CHO) cells, Assay Type: Forward gene mutation at the HPRT locus, Assay Code: CHOT, Evaluation Type: Evaluation B (Post-1980)): no conclusion

OCC(c1ccc(Cl)cc1)c1ccc(Cl)cc1
mutagenic call [2]: no conclusion

O=[N+]([O-])c1ccc(N2CCN(c3ccccc3)CC2)c2c1no[n+]2[O-]
mutagenic call [7]: active; positive

O=C1C(c2[nH]c3ccccc3c2O)=Nc2ccccc21
mutagenic call (Species/Cell Type: Mammalian polychromatic erythrocytes, Assay Type: Micronucleus test, chromosome aberrations, Assay Code: MNT-, Evaluation Type: Evaluation B (Post-1980)): inactive; negative

O=C1c2cccc(O)c2C(=O)c2c(O[C@@H]3O[C@H](CO)[C@@H](O)[C@H](O)[C@H]3O)cccc21
mutagenic call [11]: active; positive

C[N+](C)(C)CCO
mutagenic call (Species/Cell Type: Escherichia coli polA (W3119 vs P3478), Assay Type: Rec-assay, DNA effects (bacterial DNA repair), Assay Code: RE1T, Evaluation Type: Evaluation A (Pre-1980)): no conclusion
mutagenic call [1]: active; positive

Nc1c(O)c(S(=O)(=O)O)cc2cc(S(=O)(=O)O)ccc12
mutagenic call (Species/Cell Type: Rodents, Sex: Male, Assay Type: Dominant lethal test, Assay Code: DLT-, Evaluation Type: Evaluation A (Pre-1980)): inactive; negative

O=[N+]([O-])c1ccc(O/N=C/c2cc(Br)c(O)c(Br)c2)c([N+](=O)[O-])c1
mutagenic call (Species/Cell Type: Saccharomyces cerevisiae, Assay Type: Mitotic recombination or gene conversion, Assay Code: YEC-, Evaluation Type: Evaluation A (Pre-1980)): inactive; negative
